Like-named read-outs stand apart in the source and are kept apart here.
How the values were obtained:
[1] = test system: N. gonorrhoeae WHO L; assay: Liquid broth MIC in Fastidious broth; details: Neisseria gonorrhoeae
[2] = molecular target: T1, PBP1a from Acinetobacter baumannii (ATCC 19606) (Acinetobacter baumannii, UniProt A0ABX6CK30); assay: Bocillin-FL fluorescence polarization competition binding, A. baumannii PBP1a; details: fluorescence polarization competition binding assay using Bocillin-FL; read-out: A. baumannii PBP1a Potency
T1 sequence (A0ABX6CK30 1-851): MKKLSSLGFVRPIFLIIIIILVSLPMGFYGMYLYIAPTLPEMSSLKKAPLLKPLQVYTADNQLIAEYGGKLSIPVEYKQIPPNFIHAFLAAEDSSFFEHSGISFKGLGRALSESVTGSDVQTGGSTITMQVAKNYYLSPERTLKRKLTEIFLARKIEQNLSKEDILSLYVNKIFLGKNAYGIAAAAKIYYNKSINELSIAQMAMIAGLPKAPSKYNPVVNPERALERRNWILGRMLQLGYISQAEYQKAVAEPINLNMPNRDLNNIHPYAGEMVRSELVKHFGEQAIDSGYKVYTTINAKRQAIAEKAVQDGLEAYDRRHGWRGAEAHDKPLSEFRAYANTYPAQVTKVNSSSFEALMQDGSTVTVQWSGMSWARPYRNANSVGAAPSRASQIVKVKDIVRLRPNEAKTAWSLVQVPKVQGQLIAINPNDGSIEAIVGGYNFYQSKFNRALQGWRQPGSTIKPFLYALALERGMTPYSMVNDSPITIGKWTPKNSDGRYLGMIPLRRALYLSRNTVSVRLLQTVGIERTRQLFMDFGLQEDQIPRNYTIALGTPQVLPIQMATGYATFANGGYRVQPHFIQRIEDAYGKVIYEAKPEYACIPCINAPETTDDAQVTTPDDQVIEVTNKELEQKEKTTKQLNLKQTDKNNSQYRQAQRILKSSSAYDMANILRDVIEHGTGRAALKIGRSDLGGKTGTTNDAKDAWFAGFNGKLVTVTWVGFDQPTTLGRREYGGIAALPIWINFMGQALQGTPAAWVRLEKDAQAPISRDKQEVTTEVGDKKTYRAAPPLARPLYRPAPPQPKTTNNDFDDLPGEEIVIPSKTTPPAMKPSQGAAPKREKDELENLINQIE
Method in brief: (§1)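 Purified PBP was preincubated with inhibitor (E. coli PBP3 1.5 μM, 30 min; P. aeruginosa PBP3 0.75 μM, A. baumannii PBP3 0.2 μM and PBP1a 1 μM, 15 min), then Bocillin-FL (0.1 μM; 0.05 μM for PBP1a) added and FP read up to 60 min. EC50 = 50% loss of bound probe.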

[3] = molecular target: T2, PBP3 from Acinetobacter baumannii (ATCC 19606) (Acinetobacter baumannii, UniProt A0ABX6CK25); assay: Bocillin-FL fluorescence polarization competition binding, A. baumannii PBP3; details: fluorescence polarization competition binding assay using Bocillin-FL; read-out: A. baumannii PBP3 Potency
T2 sequence (A0ABX6CK25 64-610): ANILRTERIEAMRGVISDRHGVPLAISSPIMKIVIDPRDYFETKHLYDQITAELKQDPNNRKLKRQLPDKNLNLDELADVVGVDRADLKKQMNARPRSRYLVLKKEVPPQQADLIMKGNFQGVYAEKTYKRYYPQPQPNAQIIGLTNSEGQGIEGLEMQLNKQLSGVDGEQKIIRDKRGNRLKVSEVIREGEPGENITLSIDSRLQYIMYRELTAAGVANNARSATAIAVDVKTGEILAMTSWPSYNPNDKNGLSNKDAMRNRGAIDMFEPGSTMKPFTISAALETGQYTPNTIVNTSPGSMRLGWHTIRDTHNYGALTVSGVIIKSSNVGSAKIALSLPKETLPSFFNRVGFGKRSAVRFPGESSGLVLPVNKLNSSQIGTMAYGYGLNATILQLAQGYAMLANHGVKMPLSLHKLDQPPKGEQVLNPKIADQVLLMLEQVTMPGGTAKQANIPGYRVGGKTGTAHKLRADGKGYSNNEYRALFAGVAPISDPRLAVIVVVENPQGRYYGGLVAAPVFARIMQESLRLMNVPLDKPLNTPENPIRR
Method in brief: as §1

[4] = read-out: Minimum Inhibitory Concentration (MIC), N. gonorrhoeae WHO L
[5] = read-out: Minimum Inhibitory Concentration, WHO L

SMILES	MIC [1, 4]	IC50 [2]	IC50 [3]	MIC [1, 5]
CN(CCN1CCN(C(=O)NC(C(=O)N[C@H]2Cc3ccc(F)c(C(=O)O)c3OB2O)c2cc(F)c(O)c(O)c2Cl)C(=O)C1=O)S(=O)(=O)c1ccc(C(N)=O)cc1 (stereo partly drawn) [Example 223, (3R)-3-(2-(4-(2-((4-carbamoyl-N-methylphenyl)sulfonamido)ethyl)-2,3-dioxopiperazine-1-carboxamido)-2-(2-chloro-5-fluoro-3,4-dihydroxyphenyl)acetamido)-7-fluoro-2-hydroxy-3,4-dihydro-2H-benzo[e][1,2]oxaborinine-8-carboxylic acid]	> 64 µg/mL	> 250 µM	< 10 µM	–
O=C(NCCS(=O)(=O)N1CCN(C(=O)NC(C(=O)N[C@H]2Cc3ccc(F)c(C(=O)O)c3OB2O)c2cc(F)c(O)c(O)c2Cl)C1=O)Nc1cccc(O)c1 (stereo partly drawn) [Example 266, (3R)-3-(2-(2-chloro-5-fluoro-3,4-dihydroxyphenyl)-2-(3-((2-(3-(3-hydroxyphenyl)ureido)ethyl)sulfonyl)-2-oxoimidazolidine-1-carboxamido)acetamido)-7-fluoro-2-hydroxy-3,4-dihydro-2H-benzo[e][1,2]oxaborinine-8-carboxylic acid]	–	> 250 µM	< 10 µM	> 64 µg/mL
CN(CCN1CCN(C(=O)N[C@@H](C(=O)N[C@H]2Cc3ccc(F)c(C(=O)O)c3OB2O)c2cc(F)c(O)c(O)c2Cl)C(=O)C1=O)Cc1ccc(C(N)=O)cc1 [Example 226, (R)-3-((R)-2-(4-(2-((4-carbamoylbenzyl)(methyl)amino)ethyl)-2,3-dioxopiperazine-1-carboxamido)-2-(2-chloro-5-fluoro-3,4-dihydroxyphenyl)acetamido)-7-fluoro-2-hydroxy-3,4-dihydro-2H-benzo[e][1,2]oxaborinine-8-carboxylic acid]	> 64 µg/mL	> 250 µM	< 10 µM	–
O=C(NCCCS(=O)(=O)N1CCN(C(=O)NC(C(=O)N[C@H]2Cc3ccc(F)c(C(=O)O)c3OB2O)c2cc(F)c(O)c(O)c2Cl)C1=O)c1ccncc1 (stereo partly drawn) [Example 272, (3R)-3-(2-(2-chloro-5-fluoro-3,4-dihydroxyphenyl)-2-(3-((3-(isonicotinamido)propyl)sulfonyl)-2-oxoimidazolidine-1-carboxamido)acetamido)-7-fluoro-2-hydroxy-3,4-dihydro-2H-benzo[e][1,2]oxaborinine-8-carboxylic acid]	–	> 250 µM	< 10 µM	> 64 µg/mL
O=C(CN1CCN(C(=O)N[C@@H](C(=O)N[C@H]2Cc3ccc(F)c(C(=O)O)c3OB2O)c2cc(F)c(O)c(O)c2Cl)C(=O)C1=O)NCc1nccs1 [Example 241, (R)-3-((R)-2-(2-chloro-5-fluoro-3,4-dihydroxyphenyl)-2-(2,3-dioxo-4-(2-oxo-2-((thiazol-2-ylmethyl)amino)ethyl)piperazine-1-carboxamido)acetamido)-7-fluoro-2-hydroxy-3,4-dihydro-2H-benzo[e][1,2]oxaborinine-8-carboxylic acid]	> 64 µg/mL	> 250 µM	< 10 µM	–
O=C(NCCN1CCN(C(=O)NC(C(=O)N[C@H]2Cc3ccc(F)c(C(=O)O)c3OB2O)c2cc(F)c(O)c(O)c2Cl)C(=O)C1=O)c1nccs1 (stereo partly drawn) [Example 218, (3R)-3-(2-(2-chloro-5-fluoro-3,4-dihydroxyphenyl)-2-(2,3-dioxo-4-(2-(thiazole-2-carboxamido)ethyl)piperazine-1-carboxamido)acetamido)-7-fluoro-2-hydroxy-3,4-dihydro-2H-benzo[e][1,2]oxaborinine-8-carboxylic acid]	> 64 µg/mL	> 250 µM	< 10 µM	–
O=C(NCCS(=O)(=O)N1CCN(C(=O)N[C@H](C(=O)N[C@H]2Cc3ccc(F)c(C(=O)O)c3OB2O)c2cc(F)c(O)c(O)c2Cl)C1=O)c1nccs1 [Example 263, (R)-3-((S)-2-(2-chloro-5-fluoro-3,4-dihydroxyphenyl)-2-(2-oxo-3-((2-(thiazole-2-carboxamido)ethyl)sulfonyl)imidazolidine-1-carboxamido)acetamido)-7-fluoro-2-hydroxy-3,4-dihydro-2H-benzo[e][1,2]oxaborinine-8-carboxylic acid]	–	> 250 µM	10 to 50 µM	> 64 µg/mL
